From USRE38506E1, “Potent inducers of terminal differentiation and methods of use thereof” (Sloan-Kettering Institute for Cancer Research, priority 1991, dated 2004)

Tests used:
[1] = system: HL-60 human leukemia cells; experiment: Induction of Differentiation of HL-60 (NBT reduction); type: cell-based; conditions: for Optimal Conc.: HL-60, Table 2; for NBT Positive: HL-60, at optimal concentration
Method: (§1) Commitment to terminal differentiation, characterized by limited cell division (colony size<32 cells) and accumulation of hemoglobin (benzidine reactive colonies) was assayed by a colony cloning assay using 2% methylcellulose as described (25) (see Table 1 for results). HL-60 human leukemia cells, derived from peripheral blood leukocytes of a patient with acute promyelocytic leukemia (40). Induced differentiation of HL-60 cells assayed by determining the proportion of cells that developed the capacity to reduce nitroblue tetrazolium (NBT) (41) (see Table 2 for results).

[2] = system: MELC 745A-DS19 cells; experiment: Induction of terminal differentiation of murine erythroleukemia cells (benzidine reactivity); type: cell-based; conditions: for Optimal Conc.: Table 1; for Benzidine Reactive Cells: at optimal concentration
Method: MELC 745A-DS19 cells and the variants of MELC derived from this cell line, namely, the vincristine-resistant MELC V3.17 and VCR.C(2)15 cell lines (26), and the dimethylsulfoxide-resistant cell line, DR10 (39), were maintained in alpha minimal essential medium containing 10% fetal calf serum (16). Cell cultures for all experiments were initiated with cells in logarithmic growth phase (day 2 cultured cells) at a density of 10^5 cells/ml. Inducer compounds were added in the final concentrations indicated below, dissolved in culture medium without fetal calf serum unless otherwise indicated. Cell density and benzidine reactively were determined as described (16).
as §1

[3] = system: MELC 745A-DS19 cells; conditions: without continuing drug exposure; cited from earlier work

| Structure (SMILES) | Optimal Conc. [1] [µM] | NBT Positive [1] [%] | Optimal Conc. [2] [µM] | Benzidine Reactive Cells [2] [%] | minimum duration of continuous exposure required to induce differentiation in a substantial portion (>20%) of the population [3] |
| --- | --- | --- | --- | --- | --- |
| O=C(CCCCCCC(=O)Nc1c(F)ccc(F)c1F)NO [compound 43] | 2 | 20 | 31 | 53 | – |
| O=C(CCCCCCC(=O)Nc1ccc([N+](=O)[O-])cc1)NO [compound 25] | 3 | 18 | 0.8 | 30 | – |
| O=C(CCCCCC(=O)Nc1ccccc1)NO [compound 2] | 7 | 22 | 20 | 84 | – |
| N#Cc1ccc(NC(=O)CCCCCCC(=O)O)cc1 [compound 7] | 20 | 21 | – | 52 | – |
| N#Cc1cccc(NC(=O)CCCCCCC(=O)O)c1 [compound 6] | 20 | 30 | – | 44 | – |
| N#CCc1ccc(NC(=O)CCCCCCC(=O)NO)cc1 [compound 29] | 1 | 15 | 1 | 30 | – |
| CC(=O)NCCCCCCNC(C)=O [HMBA, N,N′-hexamethylene bisacetamide] | – | – | – | – | about 36 hours |
| COC(=O)c1ccc(NC(=O)CCCCCCC(=O)NO)cc1 [compound 36] | 1 | 32 | 4 | 28 | – |
| [N-]=[N+]=Nc1ccc(NC(=O)CCCCCCC(=O)NO)cc1 [compound 31] | 2.5 | 7 | 2 | 47 | – |
